Converted amounts (≈) assume the structure as drawn.

The test system of test [1] is Mycobacterium tuberculosis. The experiment in a line: Percent reduction of mycobacterial growth using Mycobacterium tuberculosis H37Rv at a concentration of 12.5 ug/mL. Type of test: functional.
Test [2] concerns Mycobacterium tuberculosis. The experiment in a line: In vitro antituberculosis activity against Mycobacterium tuberculosis H37Rv using the BACTEC 12B medium using a micro dilution assay( MABA). Type of test: functional.
Test [3] relates to Mycolicibacterium fortuitum. Description: In vitro anti-mycobacterial activity expressed as minimum inhibitory concentration against Mycobacterium fortuitum ATCC 6841. Type of test: functional.
Test [4] in a line: Tested in vitro for killing of Mycobacterium tuberculosis Erdman (ATCC 35801) in monolayers of mouse bone marrow macrophages and 90% reduction was reported using level 3 assay. Also on record: unit not given here. It is filed as functional.
The species named for the next test is Mus musculus. The experiment in a line: Tested in vitro for killing of Mycobacterium tuberculosis Erdman (ATCC 35801) in monolayers of mouse bone marrow macrophages and 99% reduction was reported using level 3 assay. Type of test: functional. Also on record: unit not given here.
A short description of test [5]: Ratio between EC90 and MIC was reported. It is filed as functional.
Test [6] has as its system Mycobacterium tuberculosis. Description: Compound was evaluated for antituberculosis activity against Mycobacterium tuberculosis in level 2 assay. Type of test: functional.
Test [7] in a line: Selectivity index (IC50/MIC) was determined. Type of test: functional.
Test [8] concerns Mycobacterium tuberculosis. Description: Concentration required for inhibition of growth of Mycobacterium tuberculosis in level 2 assay. Type of test: functional, organism-based.
The subject of test [9] is Mycobacterium tuberculosis. Description: Compound was evaluated for antituberculosis activity against Mycobacterium tuberculosis in level 2 assay (performed using BACTEC in which MIC of RMP was found as 0.125 […]). Type of test: functional.

Broadly, the inhibition is the drop in the measured response relative to a control, in per cent. For orientation: MIC means the lowest concentration found to suppress growth. Consider `CCn1c(S)nnc1-c1ccc(N/C(S)=N/C2CCCCC2)cc1`, for which the inhibition at 12.5 µg/mL in test [1] was determined as 10%. Moreover, the MIC is over 12.5 µg/mL in test [2] and 64 µg/mL (≈ 177 µM) in test [3].

In the case of `C=CCNC(=S)Nc1ccc(-c2n[nH]c(=S)n2CC)cc1`, the inhibition at 12.5 µg/mL in test [1] turned out to be 89%. For the same molecule, the MIC in test [2] is over 12.5 µg/mL; in test [3] it was 64 µg/mL (≈ 200 µM).

In the case of `CNC(=S)Nc1ccc(-c2n[nH]c(=S)n2-c2ccccc2)cc1`, the inhibition at 12.5 µg/mL in [1] was found to be 27%. Besides, the MIC was over 12.5 µg/mL in test [2] and 64 µg/mL (≈ 187 µM) in test [3].

In test [1], `C=CCn1c(-c2ccc(NC(=S)NC)cc2)n[nH]c1=S` yielded an inhibition at 12.5 µg/mL of 0%. Also, the MIC in test [2] was over 12.5 µg/mL; in [3], over 128 µg/mL.

Molecule `CNC(=S)Nc1ccc(-c2n[nH]c(=S)n2C)cc1` displayed an inhibition at 12.5 µg/mL in test [1] of 93%. For the same molecule, the EC90 in test [4] turned out to be 0.371. In addition, the MIC in [2] is under 12.5 µg/mL; in test [3], 64 µg/mL (≈ 229 µM); in test [6] it was over 12.5 µg/mL. For the same molecule, in the test listed under Mus musculus, the EC99 is given as over 100. Also, the EC90/MIC in test [5] was under 0.0297.

In turn, `S=C(Nc1ccccc1)Nc1ccc(-c2n[nH]c(=S)n2-c2ccccc2)cc1` had an inhibition at 12.5 µg/mL in test [1] of 13%. Moreover, the minimum inhibitory concentration (MIC) in test [2] was over 12.5 µg/mL; in test [3], over 128 µg/mL.

The molecule `CCNC(=S)Nc1ccc(-c2n[nH]c(=S)n2C)cc1` displayed an inhibition at 12.5 µg/mL in [1] of 90%. The EC90 in [4] is listed as 0.303. Also, the MIC in test [2] is under 12.5 µg/mL; in test [3] it was 64 µg/mL (≈ 218 µM); in test [6], over 12.5 µg/mL. The same molecule displayed an EC99 in the test filed under Mus musculus of 48.65. In test [5], the Ratio is under 0.0242.

Take `S/C(=N\C1CCCCC1)Nc1ccc(-c2nnc(S)n2-c2ccccc2)cc1`: testing at 12.5 µg/mL in [1] gave an inhibition of 13%. The MIC in test [2] was over 12.5 µg/mL; in test [3] it was 64 µg/mL (≈ 156 µM).

As for `C=CCNC(=S)Nc1ccc(-c2n[nH]c(=S)n2-c2ccccc2)cc1`, the inhibition at 12.5 µg/mL in test [1] amounted to 12%. Also, the results for the MIC in [2] and in test [3] were over 12.5 µg/mL and 64 µg/mL (≈ 174 µM), respectively.

With `CNC(=S)Nc1ccc(-c2nnc(SCc3ccccc3)n2C)cc1`, in test [1], 12.5 µg/mL produced 85% inhibition. The figures for the MIC in test [2] and in test [3] were over 12.5 µg/mL and over 128 µg/mL, respectively.

`C=CC/N=C(\S)Nc1ccc(-c2nnc(S)n2C2CCCCC2)cc1` came in with an inhibition at 12.5 µg/mL in test [1] of 35%. The MIC in test [2] is over 12.5 µg/mL; in test [3] it was 32 µg/mL (≈ 85.7 µM).

Regarding `CCNC(=S)Nc1ccc(-c2n[nH]c(=S)n2-c2ccccc2)cc1`, the inhibition at 12.5 µg/mL in [1] was determined as 17%. The MIC in test [2] was over 12.5 µg/mL; in test [3], 64 µg/mL (≈ 180 µM).

As to `Cn1c(S)nnc1-c1ccc(N/C(S)=N/C2CCCCC2)cc1`, in test [1], the inhibition at 12.5 µg/mL stood at 10%. The figures for the MIC in [2] and in [3] were over 12.5 µg/mL and 32 µg/mL (≈ 92.1 µM), respectively.

`CO[C@H]1/C=C/O[C@@]2(C)Oc3c(C)c(O)c4c(O)c(c(/C=N/N5CCN(C)CC5)c(O)c4c3C2=O)NC(=O)/C(C)=C\C=C\[C@H](C)[C@H](O)[C@@H](C)[C@@H](O)[C@@H](C)[C@H](OC(C)=O)[C@@H]1C` [RIFAMPIN] registered an EC90 in test [4] of 0.007. The same molecule came in with an EC99 in the test listed under Mus musculus of 0.451. The MIC in [3] was 0.25 µg/mL (≈ 0.304 µM).

A word on the IC50: it is the midpoint of a concentration-inhibition curve. Turning to `C=CCNC(=S)Nc1ccc(-c2nnc(SCc3ccc(Cl)cc3Cl)n2C)cc1`, in [7], the Ratio is over 1.6. In test [1], this molecule came in with an inhibition at 12.5 µg/mL of 94%. For the same molecule, the IC50 in test [8] is over 10 µg/mL. Further, the MIC in test [2] was under 12.5 µg/mL; in test [9], 6.25 µg/mL; in test [3], over 128 µg/mL.

In turn, `S/C(=N\C1CCCCC1)Nc1ccc(-c2nnc(S)n2C2CCCCC2)cc1` yielded an inhibition at 12.5 µg/mL in test [1] of 12%. Besides, the results for the MIC in test [2] and in test [3] were over 12.5 µg/mL and over 128 µg/mL, respectively.

As to `C=CCNC(=S)Nc1ccc(-c2n[nH]c(=S)n2CC=C)cc1`, the inhibition at 12.5 µg/mL in [1] came out at 71%. Further, the MIC is over 12.5 µg/mL in test [2] and 32 µg/mL (≈ 96.5 µM) in test [3].

`Cn1c(-c2ccc(NC(=S)Nc3ccccc3)cc2)n[nH]c1=S`: testing at 12.5 µg/mL in [1] gave an inhibition of 29%. Moreover, the MIC was over 12.5 µg/mL in test [2] and 64 µg/mL (≈ 187 µM) in test [3].

In the case of `C=CCNC(=S)Nc1ccc(-c2nnc(SCc3ccc(Cl)cc3Cl)n2-c2ccccc2)cc1`, the inhibition at 12.5 µg/mL in test [1] turned out to be 63%. Moreover, the MIC is over 12.5 µg/mL in test [2] and over 128 µg/mL in test [3].

In test [1], `C=CCNC(=S)Nc1ccc(-c2n[nH]c(=S)n2C)cc1` had an inhibition at 12.5 µg/mL of 94%. Moreover, the EC90 in test [4] came out at 0.698. Moreover, the minimum inhibitory concentration (MIC) in [2] is 12.5 µg/mL (≈ 40.9 µM); in [3], 64 µg/mL (≈ 210 µM); in test [6] it was over 12.5 µg/mL. For the same molecule, the EC99 in the test listed under Mus musculus is recorded as over 100. Besides, the Ratio in test [5] is under 0.0558.

Take `S=C(Nc1ccc(Cl)cc1)Nc1ccc(-c2n[nH]c(=S)n2-c2ccccc2)cc1`: testing at 12.5 µg/mL in test [1] gave an inhibition of 11%. The MIC in [2] is over 12.5 µg/mL; in test [3], 64 µg/mL (≈ 146 µM).

In the case of `NC[C@H]1O[C@H](O[C@H]2[C@H](O)[C@@H](O[C@H]3O[C@H](CO)[C@@H](O)[C@H](N)[C@H]3O)[C@H](N)C[C@@H]2N)[C@H](N)C[C@@H]1O` [TOBRAMYCIN], the MIC in test [3] is 32 µg/mL (≈ 68.4 µM).

Consider `C=CCn1c(-c2ccc(NC(=S)Nc3ccccc3)cc2)n[nH]c1=S`, for which, in test [1], the inhibition at 12.5 µg/mL was found to be 0%. Besides, the MIC was over 12.5 µg/mL in [2] and 32 µg/mL (≈ 87.1 µM) in test [3].

In the case of `C=CCNC(=S)Nc1ccc(-c2n[nH]c(=S)n2CCc2ccccc2)cc1`, the inhibition at 12.5 µg/mL in test [1] stood at 6%. The values for the MIC in test [2] and in test [3] were over 12.5 µg/mL and 64 µg/mL (≈ 162 µM), respectively.

Source of the values: ChEMBL document CHEMBL1134120, “Some 3-thioxo/alkylthio-1,2,4-triazoles with a substituted thiourea moiety as possible antimycobacterials” (Bioorg Med Chem Lett, 2001).
